Measurements: ChEMBL document CHEMBL1201862, “PubChem BioAssay data set” (2004)
Activity calls are given as the source filed them.

Experiments:
[1] = molecular target: T1, Short transient receptor potential channel 4 (Mus musculus, UniProt Q9QUQ5); experiment: block of DAMGO-driven TRPC4 calcium entry – cell-based, HEK293 TRPC4/mu-opioid, Fluo-4 calcium, dose response (AID 434942); assay type: functional;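 also: potency of inhibitors blocking the TRPC4 calcium response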
T1 sequence (Q9QUQ5 whole entry): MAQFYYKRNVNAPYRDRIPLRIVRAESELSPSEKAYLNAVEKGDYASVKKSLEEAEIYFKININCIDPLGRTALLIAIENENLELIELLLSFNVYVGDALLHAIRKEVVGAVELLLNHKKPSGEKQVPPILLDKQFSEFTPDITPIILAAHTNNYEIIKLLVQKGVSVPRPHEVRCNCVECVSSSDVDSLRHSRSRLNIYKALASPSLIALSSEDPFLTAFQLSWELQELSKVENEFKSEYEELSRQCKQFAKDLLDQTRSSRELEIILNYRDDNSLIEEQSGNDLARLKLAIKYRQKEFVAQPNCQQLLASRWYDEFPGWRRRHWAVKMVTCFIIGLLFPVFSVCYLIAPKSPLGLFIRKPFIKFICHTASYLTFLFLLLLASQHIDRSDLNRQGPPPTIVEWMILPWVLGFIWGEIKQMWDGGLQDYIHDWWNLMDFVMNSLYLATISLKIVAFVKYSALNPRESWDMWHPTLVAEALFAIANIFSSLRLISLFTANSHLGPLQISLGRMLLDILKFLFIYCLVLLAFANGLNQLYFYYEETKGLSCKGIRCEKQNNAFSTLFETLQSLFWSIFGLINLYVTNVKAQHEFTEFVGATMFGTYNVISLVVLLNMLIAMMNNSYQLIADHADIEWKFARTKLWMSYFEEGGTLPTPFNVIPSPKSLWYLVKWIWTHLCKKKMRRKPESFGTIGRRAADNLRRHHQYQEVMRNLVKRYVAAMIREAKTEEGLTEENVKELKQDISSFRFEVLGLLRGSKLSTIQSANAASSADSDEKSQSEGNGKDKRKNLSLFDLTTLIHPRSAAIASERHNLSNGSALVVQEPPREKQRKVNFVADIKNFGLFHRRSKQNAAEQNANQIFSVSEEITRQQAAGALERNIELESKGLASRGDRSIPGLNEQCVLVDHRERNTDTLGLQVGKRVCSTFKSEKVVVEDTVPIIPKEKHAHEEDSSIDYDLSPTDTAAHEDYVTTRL

cells [2] = experiment: cells
[3] = NIH3T3 cell viability loss – ATP luminescence, mouse fibroblasts, counter-screen, dose response (AID 2010); assay type: functional, cell-based;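 also: cells exposed to compound for about 90 hours before reading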
[4] = Trypanosoma cruzi growth suppression in host cells – NIH3T3 host cells, beta-gal luminescence, confirmation (AID 2044); assay type: functional, cell-based;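 also: intracellular parasites grown in NIH/3T3 mouse fibroblasts as host cells; luminescent beta-galactosidase reporter signal from transgenic T. cruzi replicating inside host cells; inhibitors lower the luminescence signal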
[5] = molecular target: T2, Mannose-6-phosphate isomerase (Homo sapiens, UniProt P34949); experiment: MPI enzyme activity inhibition – biochemical, fluorescence intensity, coupled assay, primary screen (AID 1209)
T2 sequence (P34949 whole entry): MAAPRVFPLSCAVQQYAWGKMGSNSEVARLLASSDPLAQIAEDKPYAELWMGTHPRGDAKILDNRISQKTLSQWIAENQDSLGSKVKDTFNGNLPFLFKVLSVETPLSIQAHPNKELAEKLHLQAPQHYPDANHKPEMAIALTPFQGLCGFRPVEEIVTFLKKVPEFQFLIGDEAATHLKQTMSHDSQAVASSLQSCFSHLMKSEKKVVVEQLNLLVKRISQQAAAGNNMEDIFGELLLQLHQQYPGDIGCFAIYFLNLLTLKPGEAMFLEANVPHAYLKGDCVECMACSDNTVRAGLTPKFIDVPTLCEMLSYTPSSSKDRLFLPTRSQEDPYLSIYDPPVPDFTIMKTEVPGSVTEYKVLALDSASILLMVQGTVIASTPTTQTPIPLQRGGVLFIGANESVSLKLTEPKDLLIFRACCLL

[6] = molecular target: T2, Mannose-6-phosphate isomerase; experiment: MPI inhibition at elevated mannose 6-phosphate – biochemical, fluorescence intensity, high mannose 6-phosphate, primary screen (AID 1220)
[7] = viability loss in THP-1 monocytes – THP-1 cells, cytotoxicity control for Vif-APOBEC3G degradation inhibitor project, dose response (AID 1117359); assay type: functional; settings: THP-1
[8] = molecular target: Induced myeloid leukemia cell differentiation protein Mcl-1 (Homo sapiens, UniProt Q07820); assay type: functional
Sequence of Induced myeloid leukemia cell differentiation protein Mcl-1 (Q07820 whole entry): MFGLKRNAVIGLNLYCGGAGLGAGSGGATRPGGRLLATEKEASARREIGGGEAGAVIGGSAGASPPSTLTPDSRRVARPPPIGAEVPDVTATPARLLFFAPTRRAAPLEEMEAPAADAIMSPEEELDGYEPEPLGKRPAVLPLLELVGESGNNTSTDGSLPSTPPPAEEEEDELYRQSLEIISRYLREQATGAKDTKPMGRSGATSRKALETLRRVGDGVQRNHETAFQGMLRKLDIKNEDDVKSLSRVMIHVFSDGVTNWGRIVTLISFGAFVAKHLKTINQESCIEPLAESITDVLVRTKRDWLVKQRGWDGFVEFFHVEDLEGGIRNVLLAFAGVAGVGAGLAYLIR

[9] = molecular target: Bifunctional protein GlmU (Mycobacterium tuberculosis, UniProt P9WMN3); experiment: Inhibitors of Mycobacterial Glucosamine-1-phosphate acetyl transferase (GlmU). Secondary screen.; design: species or system Mycobacterium tuberculosis H37Rv
Sequence of Bifunctional protein GlmU (P9WMN3 whole entry): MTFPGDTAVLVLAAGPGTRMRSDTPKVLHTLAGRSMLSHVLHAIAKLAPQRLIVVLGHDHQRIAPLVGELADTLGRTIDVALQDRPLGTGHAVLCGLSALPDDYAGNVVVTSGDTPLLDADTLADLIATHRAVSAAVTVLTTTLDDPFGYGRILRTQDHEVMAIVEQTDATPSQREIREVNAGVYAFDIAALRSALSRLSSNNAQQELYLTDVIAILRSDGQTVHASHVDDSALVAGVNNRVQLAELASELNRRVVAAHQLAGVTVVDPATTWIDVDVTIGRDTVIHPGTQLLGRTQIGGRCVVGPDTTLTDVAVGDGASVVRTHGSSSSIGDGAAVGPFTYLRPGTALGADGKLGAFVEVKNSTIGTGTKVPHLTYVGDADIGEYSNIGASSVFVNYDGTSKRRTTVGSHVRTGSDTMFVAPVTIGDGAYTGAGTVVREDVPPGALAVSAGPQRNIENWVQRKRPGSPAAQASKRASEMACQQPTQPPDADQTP

Large T antigen = Large T antigen (Simian virus 40, UniProt P03070); assay type: functional, Betapolyomavirus macacae;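 also: Confirmatory-stage PubChem screen for compounds that inhibit SV40 T antigen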
Sequence of Large T antigen (P03070 whole entry): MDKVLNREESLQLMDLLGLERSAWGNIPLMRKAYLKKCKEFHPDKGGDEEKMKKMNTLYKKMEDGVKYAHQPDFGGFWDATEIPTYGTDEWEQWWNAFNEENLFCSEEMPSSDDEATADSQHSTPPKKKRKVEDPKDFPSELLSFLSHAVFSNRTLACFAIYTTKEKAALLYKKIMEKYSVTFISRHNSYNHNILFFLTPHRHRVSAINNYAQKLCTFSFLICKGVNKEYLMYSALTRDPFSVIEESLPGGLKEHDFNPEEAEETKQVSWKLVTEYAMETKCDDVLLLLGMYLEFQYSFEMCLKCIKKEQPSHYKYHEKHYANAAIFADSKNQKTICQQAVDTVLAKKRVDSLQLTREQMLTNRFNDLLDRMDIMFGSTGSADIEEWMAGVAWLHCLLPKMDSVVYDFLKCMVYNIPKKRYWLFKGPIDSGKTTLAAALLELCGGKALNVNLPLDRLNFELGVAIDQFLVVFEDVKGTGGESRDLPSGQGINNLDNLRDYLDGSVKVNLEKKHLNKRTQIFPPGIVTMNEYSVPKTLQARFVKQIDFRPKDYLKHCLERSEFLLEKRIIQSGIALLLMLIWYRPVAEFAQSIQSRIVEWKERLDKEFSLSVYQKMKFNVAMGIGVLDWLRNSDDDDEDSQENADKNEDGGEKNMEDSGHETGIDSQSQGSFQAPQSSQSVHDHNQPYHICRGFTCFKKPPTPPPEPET

[10] = THP-1 cell cytotoxicity, dose response, cytotoxicity control for non-replicating M. tuberculosis project (AID 489025); assay type: functional
cells [11] = assay type: functional

Clc1cccc(C[n+]2cc(-c3ccccc3)n3c2CCC3)c1
EC50 [1]: 0.944 µM (active)
EC50 (cells [2]): 0.007 µM (active)
EC50 [3]: > 60 µM (not active)
EC50 [4]: < 0.1 µM (active)

Cc1ccc(-n2c(N)c(C(N)=O)sc2=S)c(C)c1
IC50 [5]: > 50 µM (not active)
IC50 [6]: > 50 µM (not active)

O=C1NC(=S)S/C1=C\c1ccc(SCc2ccco2)o1
CC50 [7]: > 40 µM (active)
IC50 [8]: 1.53 µM (active)
IC50 [9]: 17.7 µM (active)
IC50 (Large T antigen): 6.01 µM (active)
CC50 [10]: > 40 µM (active)

COc1cccc(OCCNC(=O)c2cc([N+](=O)[O-])cc([N+](=O)[O-])c2)c1
IC50 (cells [11]): 0.36 µM (active)
EC50 (cells [2]): 0.086 µM (active)
EC50 [3]: > 60 µM (not active)
EC50 [4]: < 0.1 µM (active)
